One assay has as its system Vero. The experiment in a line: viability of Vero cells under compound – cytotoxicity control for flavivirus capping enzyme inhibitors (AID 588742). Conditions: Chlorocebus sabaeus. Format: functional.
Assay [1] has as its target Dual specificity tyrosine-phosphorylation-regulated kinase 1A (Rattus norvegicus, UniProt Q63470). The class given is biochemical, Homo sapiens.
The test system of a further assay is HEK293. The experiment in a line: EBV LMP1 TES2 canonical NF-kB signalling blockers – cell-based, HEK293, luciferase, cherry-pick, dose response (AID 588343). The class given is functional. The conditions noted are these: Homo sapiens.
For assay [2], the target named is T1, RNA-binding protein pos-1 (Caenorhabditis elegans, UniProt G5EF15).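 Further: purified POS-1 fused to maltose binding protein made in E. coli; potency of compounds blocking POS-1 binding to fluorescent RNA.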
T1 sequence (G5EF15 whole entry): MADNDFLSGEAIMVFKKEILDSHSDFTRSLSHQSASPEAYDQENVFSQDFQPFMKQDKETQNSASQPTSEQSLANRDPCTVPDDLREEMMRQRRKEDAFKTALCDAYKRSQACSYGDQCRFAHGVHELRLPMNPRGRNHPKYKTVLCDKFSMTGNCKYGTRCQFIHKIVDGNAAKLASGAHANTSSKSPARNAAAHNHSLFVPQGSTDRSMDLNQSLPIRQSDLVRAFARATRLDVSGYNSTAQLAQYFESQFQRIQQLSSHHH
The experiment in a line: disruptors of C. elegans POS-1 RNA interaction – biochemical, fluorescence polarization, dose response (AID 1964). (In general: In fluorescence polarisation assays a small probe gives low polarisation when free and higher when bound to something large.)

Assay [3] deals with T2, Zinc finger protein mex-5 (Caenorhabditis elegans, UniProt Q9XUB2).
T2 sequence (Q9XUB2 whole entry): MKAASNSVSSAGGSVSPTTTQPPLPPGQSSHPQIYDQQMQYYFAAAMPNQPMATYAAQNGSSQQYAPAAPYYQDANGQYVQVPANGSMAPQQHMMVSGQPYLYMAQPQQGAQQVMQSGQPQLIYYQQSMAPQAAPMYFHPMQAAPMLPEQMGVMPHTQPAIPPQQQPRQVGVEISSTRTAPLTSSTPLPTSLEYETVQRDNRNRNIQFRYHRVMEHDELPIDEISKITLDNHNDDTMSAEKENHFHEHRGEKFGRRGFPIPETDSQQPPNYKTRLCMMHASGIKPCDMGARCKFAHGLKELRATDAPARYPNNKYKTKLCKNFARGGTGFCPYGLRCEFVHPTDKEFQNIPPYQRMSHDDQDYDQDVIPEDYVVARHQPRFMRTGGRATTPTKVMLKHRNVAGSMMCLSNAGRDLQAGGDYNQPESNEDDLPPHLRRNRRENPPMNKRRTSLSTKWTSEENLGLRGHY
The assay can be described thus: potency of MEX-5 RNA-binding blockers – biochemical, C. elegans, fluorescence polarization, dose response (AID 1960).

The next assay addresses T3, Leucine aminopeptidase (Plasmodium falciparum 3D7, UniProt Q8IL11).
T3 sequence (Q8IL11 whole entry): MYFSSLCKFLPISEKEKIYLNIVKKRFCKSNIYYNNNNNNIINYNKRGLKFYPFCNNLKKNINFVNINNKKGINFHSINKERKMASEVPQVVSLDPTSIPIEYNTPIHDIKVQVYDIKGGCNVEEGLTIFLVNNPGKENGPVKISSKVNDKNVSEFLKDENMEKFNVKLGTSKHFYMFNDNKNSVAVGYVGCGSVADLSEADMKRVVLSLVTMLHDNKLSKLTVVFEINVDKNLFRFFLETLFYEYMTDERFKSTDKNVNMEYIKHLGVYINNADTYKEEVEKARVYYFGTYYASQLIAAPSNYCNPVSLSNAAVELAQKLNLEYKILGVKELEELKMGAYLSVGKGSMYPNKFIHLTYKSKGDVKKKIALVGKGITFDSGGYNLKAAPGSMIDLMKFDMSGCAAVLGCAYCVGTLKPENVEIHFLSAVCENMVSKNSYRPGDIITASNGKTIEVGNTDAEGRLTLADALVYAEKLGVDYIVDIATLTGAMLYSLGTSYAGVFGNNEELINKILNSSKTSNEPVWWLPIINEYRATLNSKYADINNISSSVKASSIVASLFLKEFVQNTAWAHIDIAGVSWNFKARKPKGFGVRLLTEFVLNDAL
The experiment in a line: P. falciparum M17LAP inhibitors, primary screen, biochemical, fluorogenic H-Leu-NHMec substrate, 1536-well (AID 1619). Format: functional.

The values below come from ChEMBL document CHEMBL1201862, “PubChem BioAssay data set” (2004).

The structures appear in SMILES notation. Active and inactive are the calls of the source. A value given as a limit tells only on which side of the number the result lay.

For `COc1cc(/C=C2\SC(=O)NC2=O)ccc1Oc1ccc([N+](=O)[O-])cc1[N+](=O)[O-]`, the CC50 in the assay with Vero was > 40 µM (active). Further, the AC50 in assay [1] was 7.72 µM (active).

Turning to `CCn1c2ccccc2c2cc(/C=N/n3c(C)nnc3C)ccc21`, the AC50 in the assay with HEK293 was 34.2 µM (active).

For the compound `O=C(O)/C=C/c1ccc2ccccc2n1`, the AC50 with HEK293 is 47.7 µM (active).

On to `COc1ccc(Nc2ncnc3nc[nH]c23)cc1OC`, for which the EC50 was > 300 µM (not active) in assay [2] and 23.9 µM (active) in assay [3]. Also, in assay [1], the AC50 is 12 µM (active). In addition, the IC50 on Leucine aminopeptidase was 48.5 µM (active).

One may read the CC50 as the concentration at which the toxic effect on the cells reaches its halfway point. One may read the AC50 as the concentration giving half of the maximal activity seen. For orientation: EC50 means the concentration at which the effect is half-maximal. The IC50 is the concentration that gives 50% inhibition.
